Measurements: patent US20250296953A1, “3,4-THIAZOLO-STEROIDS AND METHODS OF MAKING AND USING THE SAME” (Arkansas State University - Jonesboro, priority 2018, published 2025)
Where two headings read alike, the source gives them in different places.

Assays:
gliosarcoma (SF-539) = test: NCI 60 five dose screen; conditions: for GI50 / CC50: Homo sapiens; for GI50: SF-539; for CC50: SF-539, read-out: LC50; for TGI: SF-539 (CNS Cancer), five dose
SR = test: NCI 60 five dose screen; conditions: for GI50 / CC50: Homo sapiens, SR; for CC50: read-out: LC50; for TGI: SR (Leukemia), five dose
[1] = tested on: 60 different human tumor cell lines; conditions: for TGI: five dose
[2] = A549/ATCC (Non-small Cell Lung Cancer)
[3] = EKVX (Non-small Cell Lung Cancer)
[4] = HOP-62 (Non-small Cell Lung Cancer)
[5] = MDA-MB-231/ATCC (Breast Cancer)
[6] = NCI-H23 (Non-small Cell Lung Cancer)
[7] = NCI-H226 (Non-small Cell Lung Cancer)
[8] = NCI-H322M (Non-small Cell Lung Cancer)
[9] = NCI-H460 (Non-small Cell Lung Cancer)
[10] = NCI-H522 (Non-small Cell Lung Cancer)

C[C@]12CC[C@H]3[C@@H](CC=C4c5sc(-c6ccc(O)cc6)nc5CC[C@@]43C)[C@@H]1CC[C@@H]2O [III.5, (1S,2R,13R,14S,17S,18S)-7-(4-hydroxyphenyl)-2,18-dimethyl-8-thia-6-azapentacyclo[11.7.0.02,10.05,9.014,18]icosa-5(9),6,10-trien-17-ol]
GI50 (gliosarcoma (SF-539)): 0.454 µM
CC50 (gliosarcoma (SF-539)): 91.7 µM
TGI (gliosarcoma (SF-539)): 3.23E−6
GI50 (SR): 1.37 µM
CC50 (SR): > 100 µM
TGI (SR): 3.38E−5
TGI ([1]; 786-0 (Renal Cancer)): 2.39E−6
TGI ([1]; A498 (Renal Cancer)): 2.13E−5
TGI [1, 2]: >1.00E−4
TGI ([1]; ACHN (Renal Cancer)): >1.00E−4
TGI ([1]; BT-549 (Breast Cancer)): 1.94E−5
TGI ([1]; CAKI-1 (Renal Cancer)): >1.00E−4
TGI ([1]; CCRF-CEM (Leukemia)): 4.72E−5
TGI ([1]; COLO 205 (Colon Cancer)): >1.00E−4
TGI ([1]; DU-145 (Prostate Cancer)): >1.00E−4
TGI [1, 3]: >1.00E−4
TGI ([1]; HCC-2998 (Colon Cancer)): >1.00E−4
TGI ([1]; HCT-15 (Colon Cancer)): 2.07E−5
TGI ([1]; HCT-116 (Colon Cancer)): 2.74E−5
TGI ([1]; HL-60(TB) (Leukemia)): >1.00E−4
TGI [1, 4]: 5.05E−5
TGI ([1]; HS 578T (Breast Cancer)): 6.01E−5
TGI ([1]; HT29 (Colon Cancer)): 2.04E−5
TGI ([1]; IGROV1 (Ovarian Cancer)): >1.00E−4
TGI ([1]; K-562 (Leukemia)): >1.00E−4
TGI ([1]; KM12 (Colon Cancer)): >1.00E−4
TGI ([1]; LOX IMVI (Melanoma)): 1.46E−5
TGI ([1]; M14 (Melanoma)): 2.93E−5
TGI ([1]; MALME-3M (Melanoma)): >1.00E−4
TGI ([1]; MCF7 (Breast Cancer)): 2.15E−5
TGI [1, 5]: 3.29E−5
TGI ([1]; MDA-MB-435 (Melanoma)): >1.00E−4
TGI ([1]; MDA-MB-468 (Breast Cancer)): 4.16E−5
TGI ([1]; MOLT-4 (Leukemia)): >1.00E−4
TGI [1, 6]: >1.00E−4
TGI [1, 7]: >1.00E−4
TGI [1, 8]: >1.00E−4
TGI [1, 9]: >1.00E−4
TGI [1, 10]: >1.00E−4
TGI ([1]; NCI/ADR-RES (Ovarian Cancer)): >1.00E−4
TGI ([1]; OVCAR-3 (Ovarian Cancer)): 8.37E−5
TGI ([1]; OVCAR-4 (Ovarian Cancer)): >1.00E−4
TGI ([1]; OVCAR-5 (Ovarian Cancer)): >1.00E−4
TGI ([1]; OVCAR-8 (Ovarian Cancer)): >1.00E−4
TGI ([1]; RXF 393 (Renal Cancer)): 1.31E−6
TGI ([1]; SF-268 (CNS Cancer)): >1.00E−4
TGI ([1]; SK-MEL-2 (Melanoma)): 6.94E−5
TGI ([1]; SK-MEL-5 (Melanoma)): 1.31E−5
TGI ([1]; SK-MEL-28 (Melanoma)): 6.60E−5
TGI ([1]; SK-OV-3 (Ovarian Cancer)): >1.00E−4
TGI ([1]; SN12C (Renal Cancer)): >1.00E−4
TGI ([1]; SNB-19 (CNS Cancer)): >1.00E−4
TGI ([1]; SNB-75 (CNS Cancer)): 2.57E−5
TGI ([1]; SW-620 (Colon Cancer)): >1.00E−4
TGI ([1]; T-47D (Breast Cancer)): >1.00E−4
TGI ([1]; TK-10 (Renal Cancer)): >1.00E−4
TGI ([1]; U251 (CNS Cancer)): 6.73E−5
TGI ([1]; UACC-62 (Melanoma)): 7.64E−6
TGI ([1]; UACC-257 (Melanoma)): >1.00E−4
TGI ([1]; UO-31 (Renal Cancer)): 2.04E−5

C[C@]12CCc3sc(Nc4cccc(O)c4)nc3C1=CC[C@@H]1[C@@H]2CC[C@]2(C)C(=O)CC[C@@H]12 [IIa.17, (1S,2R,13R,14S,18S)-7-(3-hydroxyanilino)-2,18-dimethyl-6-thia-8-azapentacyclo[11.7.0.02,10.05,9.014,18]icosa-5(9),7,10-trien-17-one]
GI50 (gliosarcoma (SF-539)): 3.04 µM
CC50 (gliosarcoma (SF-539)): 79.9 µM
TGI (gliosarcoma (SF-539)): 1.33E−5
GI50 (SR): 2.58 µM
CC50 (SR): > 100 µM
TGI (SR): >1.00E−4
LC50 [1]: >l.00E−4
TGI ([1]; 786-0 (Renal Cancer)): 1.31E−5
TGI ([1]; A498 (Renal Cancer)): >1.00E−4
TGI [1, 2]: >1.00E−4
TGI ([1]; ACHN (Renal Cancer)): 2.95E−5
TGI ([1]; CAKI-1 (Renal Cancer)): 3.02E−5
TGI ([1]; CCRF-CEM (Leukemia)): >1.00E−4
TGI ([1]; COLO 205 (Colon Cancer)): 3.74E−5
TGI ([1]; DU-145 (Prostate Cancer)): 4.09E−5
TGI [1, 3]: >1.00E−4
TGI ([1]; HCC-2998 (Colon Cancer)): 4.48E−5
TGI ([1]; HCT-15 (Colon Cancer)): 9.71E−6
TGI ([1]; HCT-116 (Colon Cancer)): 4.17E−6
TGI [1, 4]: >1.00E−4
TGI ([1]; HOP-92 (Non-small Cell Lung Cancer)): 6.79E−5
TGI ([1]; HS 578T (Breast Cancer)): >1.00E−4
TGI ([1]; HT29 (Colon Cancer)): 1.76E−5
TGI ([1]; IGROV1 (Ovarian Cancer)): >1.00E−4
TGI ([1]; K-562 (Leukemia)): >1.00E−4
TGI ([1]; KM12 (Colon Cancer)): 2.94E−5
TGI ([1]; LOX IMVI (Melanoma)): 1.08E−5
TGI ([1]; M14 (Melanoma)): 5.09E−5
TGI ([1]; MALME-3M (Melanoma)): >1.00E−4
TGI ([1]; MCF7 (Breast Cancer)): 3.28E−5
TGI [1, 5]: >1.00E−4
TGI ([1]; MDA-MB-435 (Melanoma)): >1.00E−4
TGI ([1]; MDA-MB-468 (Breast Cancer)): 1.46E−5
TGI ([1]; MOLT-4 (Leukemia)): >1.00E−4
TGI [1, 6]: >1.00E−4
TGI [1, 7]: 4.50E−5
TGI [1, 8]: >1.00E−4
TGI [1, 9]: 2.79E−5
TGI [1, 10]: 2.36E−5
TGI ([1]; NCI/ADR-RES (Ovarian Cancer)): >1.00E−4
TGI ([1]; OVCAR-3 (Ovarian Cancer)): 5.08E−5
TGI ([1]; OVCAR-4 (Ovarian Cancer)): >1.00E−4
TGI ([1]; OVCAR-5 (Ovarian Cancer)): >1.00E−4
TGI ([1]; OVCAR-8 (Ovarian Cancer)): >1.00E−4
TGI ([1]; PC-3 (Prostate Cancer)): 6.37E−5
TGI ([1]; RXF 393 (Renal Cancer)): 1.42E−5
TGI ([1]; SF-268 (CNS Cancer)): 7.00E−5
TGI ([1]; SK-MEL-2 (Melanoma)): 6.08E−5
TGI ([1]; SK-MEL-5 (Melanoma)): 2.60E−5
TGI ([1]; SK-MEL-28 (Melanoma)): >1.00E−4
TGI ([1]; SK-OV-3 (Ovarian Cancer)): >1.00E−4
TGI ([1]; SN12C (Renal Cancer)): 2.53E−5
TGI ([1]; SNB-19 (CNS Cancer)): >1.00E−4
TGI ([1]; SNB-75 (CNS Cancer)): 7.25E−5
TGI ([1]; SW-620 (Colon Cancer)): 1.56E−5
TGI ([1]; T-47D (Breast Cancer)): >1.00E−4
TGI ([1]; TK-10 (Renal Cancer)): 5.48E−5
TGI ([1]; U251 (CNS Cancer)): 1.93E−5
TGI ([1]; UACC-62 (Melanoma)): 2.96E−4
TGI ([1]; UACC-257 (Melanoma)): 9.45E−5
TGI ([1]; UO-31 (Renal Cancer)): 1.94E−5
